# Test results as given in publication PMC10002493, “Direct Oral FXa Inhibitors Binding to Human Serum Albumin: Spectroscopic, Calorimetric, and Computational Studies” (International Journal of Molecular Sciences, 2023).
# Counter-ions that a name gives are not always drawn. Like-named read-outs stand apart in the source and are kept apart here.
# Key:
# [1] = test system: T1, human serum albumin (HSA); assay: Steady-state fluorescence quenching of HSA (Stern–Volmer analysis); format: binding; conditions: for Ksv (Stern–Volmer constant): 0.10 M tris-HCl pH 7.4, 0.10 M NaCl, 2 µM HSA, 0–20 µM drug, λex 295 nm; for Ksv of salt compared to the neutral compound: 298 K and 310 K
# T1 construct: purchased Sigma-Aldrich
# Description: The fluorescence intrinsic to proteins is attributed to aromatic amino acid residues, such as tryptophan (Trp), phenylalanine (Phe), and tyrosine (Tyr). The fluorescence of HSA in particular can be traced back to its tyrosine and tryptophan residues, therefore the experiments were performed with an excitation wavelength of 295 nm, because tryptophan absorbs light in this range [33]. HSA has a single tryptophan residue (Trp-214) close to the Sudlow site I (subdomain IIA), responsible for the main fluorescence emission of the protein [34, 35]. Binding to this site induces fluorescence quenching, which is a very helpful tool to evaluate different drugs’ interactions with HSA.
# Sample measurements were recorded in 0.10 M tris-HCl buffer pH 7.4 with 0.10 M NaCl, 2 µM HSA, 0–20 µM FXa inhibitors respectively (λex = 295 nm).
# The quenching process of HSA can be described as static or dynamic. Static quenching occurs when HSA forms complexes with anticoagulants in the ground state, whereas dynamic quenching occurs via diffusion-controlled encounters in the excited state. Consequently, temperature affects the quenching processes in a different manner. The Stern–Volmer constant has a temperature dependence: Ksv in a dynamic process increases with temperature due to the necessity of successful diffusion and collision of the FXa inhibitors with the tryptophan residues of HSA. In a static quenching process, Ksv decreases with rising temperature, due to the diminished stability of the complex in the ground state. The quenching process of HSA can be analyzed by the Stern–Volmer equation, which provides helpful information regarding the binding process. Table 1 and Figure 4 summarize the Ksv of the HSA-FXa inhibitor complexes at 298 K and 310 K respectively. The Ksv of betrixaban and edoxaban were compared with their respective salts, betrixaban maleate (BEM) and edoxaban tosylate hydrate (EDT).
# Fluorescence emission spectra were collected on a Perkin Elmer LS55 fluorimeter, using 5 nm bandwidths for excitation and emission. Samples were excited at 295 nm and 298 K or 310 K, respectively. Subsequently, HSA fluorescence was measured at 350 nm decreases, in the presence of different anticoagulants, corrected by the inner-filter effect using Equation (1) where Icorr and Iobs correspond to fluorescence corrected and obtained intensities, and Aex and Aem correspond to the absorbance at the excitation and emission wavelengths. The quenching data were evaluated using the Stern–Volmer Equation (2), where I0 and I are the fluorescence intensities of the HSA in the absence or presence of anticoagulants (Q, quenchers), and Ksv is the Stern–Volmer constant:(1) Icorr=Iobs×10^Aex+Aem/2 (2) I0/I=1+KsvQ
# [2] = Aqueous solubility observed in preparing ITC solutions; format: physicochemical; conditions: also with solvent mixtures that included ethanol and DMSO, prevented ITC data
# Description: (§1) ITC analyses were performed in phosphate buffer, 10 mM, pH = 7.4. […] Lower ionization enthalpy reduces heat signals associated with proton-exchange reactions between the buffer and the ligand/host system during complex formation. […] A plot of the heat released per mole of HSA as a function of the molar ratio of the solution ([HSA]/[anticoagulant]) is shown at the foot of each figure. […] Control titrations were performed (drug over buffer) and subtracted from each analysis before the fitting.
# (§2) ITC data were obtained using a MicroCal PEAQ-ITC instrument (Malvern Panalytical). […] Working solutions were prepared using aliquots of the stock solutions of anticoagulants diluted in phosphate buffer, 10 mM, pH = 7.4. […] The first injection was 0.40 μL, followed by 12 injections of 3.0 μL. Reference power was set to 5 μcal/s, 500 rpm stirring speed, initial delay of 60 s, and injection spacing of 150 s. Titration curves were drawn in duplicate and the thermodynamic parameters were fitted to the one-site binding model using Microcal PEAQ-ITC analysis software. Controls were measured by recording the heat effects of the titrant over plain buffer and were subtracted from thermograms before fitting analysis. All the measurements were performed in duplicate.
# HSA: heme-Fe(III) = test system: HSA: heme-Fe(III); parameters: method as in PMID 32279215; conditions: pH 7.3, 20 °C, Phosphate 2.0 × 10^−2 M DMSO 10%, binding site IB, UV; cited from earlier work
# [3] = reversible protein–drug complexes; cited from earlier work
# BSA = conditions: binding site IIA, FS, cited from earlier work
# [4] = parameters: method as in PMID 32279215; conditions: rivaroxaban-treated patients; cited from earlier work
# fatty-acid-free HSA = target: T2, fatty-acid-free HSA; assay: Isothermal titration calorimetry (ITC) of anticoagulants with HSA; parameters: species or system human; conditions: phosphate buffer 10 mM, pH 7.4, 298 K, one-site binding model
# T2 construct: purchased Sigma-Aldrich
# Description: as §1, §2
# HSA fatty acid-free = test system: HSA fatty acid-free; parameters: method as in PMID 29680174; conditions: Tris–HCl (0.10 M NaCl) DMSO 2%, FS, cited from earlier work
aqueous solubility [2],aqueous solubility ([2]; listed as edoxaban),aqueous solubility ([2]; listed as rivaroxaban),KITC binding constant (fatty-acid-free HSA) [M⁻¹],SMILES,Ksv (Stern–Volmer constant) ([1]; 298 K),Ksv (Stern–Volmer constant) ([1]; 310 K),K (HSA: heme-Fe(III)) [M⁻¹],binding to plasma proteins [3] [%],"K (BSA; pH 7.4, 25 °C, Phosphate DMSO 0.3%) [M⁻¹]","K (BSA; pH 7.4, 30 °C, Phosphate DMSO 0.3%) [M⁻¹]","K (BSA; pH 7.4, 35 °C, Phosphate buffer DMSO 0.3%) [M⁻¹]",adjusted risk of bleeding per 1.0 g/dL incremental decrease in albumin [4] [fold],Ksv of salt compared to the neutral compound [1],"K (HSA fatty acid-free; pH 7.4, 28 °C, binding site IIA) [M⁻¹]","K (HSA fatty acid-free; pH 7.4, 37 °C, binding site IB) [M⁻¹]","K (HSA fatty acid-free; pH 7.4, 45 °C, binding site IB) [M⁻¹]"
poor aqueous solubility,low water solubility,–,–,"CN1CCc2nc(C(=O)N[C@@H]3C[C@@H](C(=O)N(C)C)CC[C@@H]3NC(=O)C(=O)Nc3ccc(Cl)cn3)sc2C1 [ED, edoxaban]",1.60 ± 0.04 ×10^4 M^−1,1.28 ± 0.05 ×10^4 M^−1,769000,55,–,–,–,–,–,–,–,–
poor aqueous solubility,–,–,–,"COc1ccc(NC(=O)c2ccc(C(=N)N(C)C)cc2)c(C(=O)Nc2ccc(Cl)cn2)c1 [BE, betrixaban]",1.86 ± 0.03 ×10^4 M^−1,1.44 ± 0.04 ×10^4 M^−1,1.61e+06,–,–,–,–,–,–,–,–,–
poor aqueous solubility,–,low water solubility,–,"O=C(NC[C@H]1CN(c2ccc(N3CCOCC3=O)cc2)C(=O)O1)c1ccc(Cl)s1 [RV, rivaroxaban]",1.56 ± 0.03 ×10^4 M^−1,0.98 ± 0.04 ×10^4 M^−1,455000,95,132000,18200,4370,4.4,–,–,–,–
–,–,–,1600,"COc1ccc(NC(=O)c2ccc(C(=N)N(C)C)cc2)c(C(=O)Nc2ccc(Cl)cn2)c1 [BEM, betrixaban maleate]",1.59±0.05 ×10^4 M^−1,1.36±0.03 ×10^4 M^−1,–,–,–,–,–,–,no significant differences,–,–,–
–,–,–,5560,"COc1ccc(-n2nc(C(N)=O)c3c2C(=O)N(c2ccc(N4CCCCC4=O)cc2)CC3)cc1 [AP, apixaban]",3.36 ± 0.03 ×10^4 M^−1,2.79 ± 0.02 ×10^4 M^−1,2.78e+06,–,–,–,–,–,–,3410,2460,1670
poor aqueous solubility,–,–,–,"CN1CCc2nc(C(=O)N[C@@H]3C[C@@H](C(=O)N(C)C)CC[C@@H]3NC(=O)C(=O)Nc3ccc(Cl)cn3)sc2C1.Cc1ccc(S(=O)(=O)O)cc1.O [EDT, Edoxaban tosylate hydrate]",1.79±0.03 ×10^4 M^−1,1.27±0.02 ×10^4 M^−1,–,–,–,–,–,–,no significant differences,–,–,–
